Marks after values point to notes of the source that are not given here.
What was measured:
Assay type in all cases: in vivo, mouse
[1] = system: des-acyl and acyl-modified ghrelin peptides in the stomach; experiment: Molecular forms of stomach ghrelin peptide after ingestion (HPLC fractionation, C-RIA); settings: mice; for stomach ghrelin modified by the acyl group corresponding to the ingested lipid: HPLC peak; for C6:0-ghrelin (n-hexanoyl ghrelin) concentration in the stomach / C8:0-ghrelin (n-octanoyl ghrelin) concentration in the stomach / C10:0-ghrelin (n-decanoyl ghrelin) concentration in the stomach / Des-acyl ghrelin concentration in the stomach / C10:1-ghrelin (n-decenoyl ghrelin) concentration in the stomach: 5% (w/w) in chow, 14 days, from 0.2 mg wet weight, C-RIA after HPLC, mean ± S.D.; for C10:1-ghrelin (n-decenoyl ghrelin) concentration in the stomach: fraction holds unidentified ghrelin molecules too
Experimental: (§1) Male C57BL/6J mice weighing 20-25 g (10-12 week old) were maintained under controlled temperature (21-23° C.) and light conditions (light on 0700-1900) with ad libitum access to food and water. Medium-chain fatty acids (MCFAs), i.e., n-hexanoic, n-octanoic, and n-lauric acids (Sigma-Aldrich Japan Co., Ltd., Tokyo), were dissolved in water at 5 mg/ml. n-Palmitic acid, a common long-chain fatty acid (LCFA) (Sigma-Aldrich Japan Co., Ltd., Tokyo), was mixed into standard laboratory chow (CLEA Rodent Diet CE-2, CLEA Japan, Osaka) at a concentration of 1% (w/w), to equilibrate the total intake amount of this lipid to the other medium-chain fatty acids contained in the food. Medium- and long-chain triglycerides (MCTs and LCTs), i.e., glyceryl trihexanoate, trioctanoate, tridecanoate and tripalmitates (Wako Pure Chemical, Osaka, Japan), were mixed with standard laboratory chow at a concentration of 5% (w/w). Whole stomach tissues from treated mice were collected at the indicated times (0-14 days) after ingesting the free fatty acid- or triacylglyceride-containing food. Fresh tissue samples from these mice were diced and boiled for 5 minutes in a 10-fold volume of water. The tissue-containing solution was then adjusted to 1M acetic acid after cooling and then homogenized with a Polytron mixer. The supernatant, obtained after centrifugation at 15,000 rpm for 15 minutes, was then lyophilized. The lyophilized material was dissolved in RIA buffer and subjected to ghrelin C- and N-RIA. To elucidate the forms of ghrelin peptides modified by different acyl groups, extracted stomach peptides were collected using a Sep-Pak Plus C18 cartridge (Waters, Milford, Mass.) and subjected to C18 RP-HPLC (Symmetry 300, 3.9×150 mm, Waters) with a linear gradient from 10 to 60% CH3CN/0.1% TFA at a flow rate of 1.0 ml/minute for 40 minutes. Five hundred micro-litter fractions were collected. Ghrelin peptide content in each fraction was measured by ghrelin C- and N-RIA as described above. Degradation of ghrelin was not observed during the extraction.
To clarify what molecular forms of ghrelin peptide are present after the ingestion of triacylglycerol (triacylglycerin), peptide extracts from stomachs of mouse fed chow containing glyceryl trihexanoate (C6:0-MCT), glyceryl trioctanoate (C8:0-MCT), glyceryl tridecanoate (C10:0-MCT), and standard laboratory chow (Control) were fractionated by HPLC, and measured for ghrelin immunoreactivity by C-RIA. […] Based on the observed retention times of synthetic acyl-modified ghrelin peptides, peaks a, d, h, and k corresponded to des-acyl ghrelin, peaks b, f, i, and 1 corresponded to n-octanoyl (C8:0) ghrelin, and peaks c, g, j, and m corresponded to n-decenoyl (10:1) ghrelin.
Male C57BL/6J mice were fed chow mixed with 5% (w/w) glyceryl trihexanoate (C6:0-MCT), glyceryl trioctanoate (C8:0-MCT), or glyceryl tri-decanoate (C10:0-MCT) for 14 days. The concentrations of des-acyl ghrelin, n-hexanoyl ghrelin (C6:0-ghrelin), n-octanoyl ghrelin (C8:0-ghrelin), n-decenoyl ghrelin (C10:1-ghrelin), and n-decanoyl ghrelin (C10:0-ghrelin) from stomach samples (from 0.2 mg wet weight) were measured by ghrelin C-RIA after HPLC fractionation.

[2] = system: acyl-modified and total ghrelin in the stomach; experiment: Stomach ghrelin content after medium- to long-chain triacylglycerol ingestion (N-RIA / C-RIA); settings: mice, 5% (w/w) in chow, two weeks; for production of acyl-modified ghrelin in stomach tissue: N-RIA
Experimental: (§2) RIAs specific for ghrelin were performed as previously described [D2]. Two polyclonal antibodies were raised in rabbits against the N-terminal (Gly^1-Lys^11 with O-n-octanoylation at Ser^3) and C-terminal (Gln^13-Arg^28) fragments of rat ghrelin. RIA incubation mixtures were composed of 100 μl of either standard ghrelin or an unknown sample, with 200 μl of antiserum diluted in RIA buffer (50 mM sodium phosphate buffer (pH 7.4), 0.5% BSA, 0.5% Triton-X100, 80 mM sodium chloride (NaCl), 25 mM disodium ethylenediamine-tetraacetate (EDTA 2-Na) and 0.05% sodium azide (NaN3)) containing 0.5% normal rabbit serum. Anti-rat ghrelin [D1-D11] and anti-rat ghrelin [D13-D28] antisera were used at final dilutions of 1/3,000,000 and 1/20,000, respectively. After a 12-hour incubation at 4° C., 100 μl of ^125I-labeled ligand (20,000 cpm) was added for an additional 36-hour incubation. Then, 100 μl of anti-rabbit goat antibody was added. After incubation for 24 hours at 4° C., free and bound tracers were separated by centrifugation at 3,000 rpm for 30 min. Pellet radioactivity was quantified in a gamma counter (ARC-600, Aloka, Tokyo). All assays were performed in duplicate at 4° C.
as §1
Orally ingested triacylglycerols are intraluminally hydrolyzed and absorbed through the gastro-intestinal mucosa as free fatty acids or monoglycerides. Thus, ingested triacylglycerols may serve as a source of free fatty acids [D26]. To examine if ingested triacylglycerols are used for acyl-modification of ghrelin, mice were fed chow mixed with 5% (w/w) glyceryl trihexanoate (C6), trioctanoate (C8), tridecanoate (C10), and tripalmintate (C16). After two weeks, gastric peptides were extracted. Ghrelin concentration in the stomach of these mice and in that from mice fed standard laboratory chow (Control) (n=8) are shown. The content of acyl-modified and total ghrelins was measured by N- and C-RIA. […]

[3] = system: acyl-modified and total ghrelin in the stomach; experiment: Stomach ghrelin content after free fatty acid ingestion (N-RIA / C-RIA); settings: mice, 14 days; for total ghrelin concentration in the stomach vs control: C-RIA
Experimental: as §2
Stomachs collected from either mice or rats were washed two times in phosphate buffered physiological saline (pH 7.4). After measuring the wet weight of each sample, the whole stomach tissue was diced and boiled for 5 minutes in a 10-fold volume of water to inactivate intrinsic proteases. After cooling on ice, boiled samples were adjusted to 1 M acetic acid-20 mM hydrochloric acid (HCl). Peptides were extracted following homogenization with a Polytron mixer (PT 6100, Kinematica AG, Littan-Luzern, Switzerland). Extract supernatants, isolated following 15-minute-centrifugation at 15,000 rpm (12,000×g), were lyophilized and stored at −80° C. The lyophilized samples were redissolved in either RIA buffer or calcium mobilization assay buffer prior to ghrelin RIA or calcium mobilization assay, respectively.
as §1, with “Degradation of ghrelin was not observed during the extraction.” left out

Compound | stomach ghrelin modified by the acyl group corresponding to the ingested lipid ([1]; C-RIA) | production of acyl-modified ghrelin in stomach tissue [2] | total ghrelin concentration in the stomach vs control [3] | gastric concentration of acyl-modified ghrelin vs control ([3]; N-RIA) | also measured
CCCC(=O)OCC(COC(=O)CCC)OC(=O)CCC [glyceryl tributyrate] | not observed | – | – | – | –
CCCCCCCCCCCCC(=O)OCC(O)CO (stereo not shown) [glyceryl tridecanoate] | increased | no effect | – | – | molar ratio of acyl-modified ghrelin/total ghrelin [2]: increased; C6:0-ghrelin (n-hexanoyl ghrelin) concentration in the stomach [1]: 22.1 ± 6.1; C8:0-ghrelin (n-octanoyl ghrelin) concentration in the stomach [1]: 460.0 ± 70.6; C10:0-ghrelin (n-decanoyl ghrelin) concentration in the stomach [1]: 95.1 ± 9.7^a); Des-acyl ghrelin concentration in the stomach [1]: 181.4 ± 31.5^c); C10:1-ghrelin (n-decenoyl ghrelin) concentration in the stomach [1]: 64.5 ± 14.2^b)
CCCCCC(=O)OCC(COC(=O)CCCCC)OC(=O)CCCCC [glyceryl trihexanoate] | increased drastically | slightly suppressed | – | – | molar ratio of acyl-modified ghrelin/total ghrelin [2]: decreased significantly; C6:0-ghrelin (n-hexanoyl ghrelin) concentration in the stomach [1]: 237.3 ± 35.0^a); C8:0-ghrelin (n-octanoyl ghrelin) concentration in the stomach [1]: 358.0 ± 33.0^b); C10:0-ghrelin (n-decanoyl ghrelin) concentration in the stomach [1]: 14.1 ± 5.2; Des-acyl ghrelin concentration in the stomach [1]: 245.0 ± 11.0; C10:1-ghrelin (n-decenoyl ghrelin) concentration in the stomach [1]: 133.5 ± 12.1^b); n-octanoyl ghrelin concentration in the stomach vs control ([1]; HPLC peak f, C-RIA): significant decreases
CCCCCCCCCCCCCCCC(=O)OCC(COC(=O)CCCCCCCCCCCCCCC)OC(=O)CCCCCCCCCCCCCCC [glyceryl tripalmitate] | not observed | no effect | – | – | –
CCCCCCCCCC(=O)O [n-decanoic acid] | increased | – | No significant changes | No significant changes | –
CCCCCC(=O)O [n-hexanoic acid] | increased | – | No significant changes | No significant changes | –
CCCCCCCC(=O)O [n-octanoic acid] | increased | – | No significant changes | increased significantly | ratio of n-octanoyl ghrelin/total ghrelin [3]: increased; mean concentration of acyl-modified ghrelin in the stomach ([3]; N-RIA, n=8, control 1,795): 2,455 fmol/mg wet weight
CCCCCCCCCCCC(=O)OCC(COC(=O)CCCCCCCCCCC)OC(=O)CCCCCCCCCCC [trilaurate] | not observed | – | – | – | –
n-palmitic acid | – | – | No significant changes | No significant changes | –
